From ChEMBL document CHEMBL3627608, “Crystal structures of human RIP2 kinase catalytic domain complexed with ATP-competitive inhibitors: Foundations for understanding inhibitor selectivity” (Bioorg Med Chem, 2015)

Key:
[1] = molecular target: Cyclin-dependent kinase 2 (Homo sapiens) (UniProt P24941); assay: Inhibition of CDK2 (unknown origin) at 10 uM after 120 mins P33 radiolabeled kinase activity assay
[2] = molecular target: Cyclin-dependent kinase 1/cyclin B1 (Homo sapiens) (UniProt P06493+P14635); assay: Inhibition of CDK1/cyclin B (unknown origin) at 10 uM after 120 mins P33 radiolabeled kinase activity assay; assay type: protein-complex assay
[3] = molecular target: T1, Myosin light chain kinase (Homo sapiens) (UniProt Q32MK0); assay: Inhibition of MYLK3 (unknown origin) at 10 uM after 120 mins P33 radiolabeled kinase activity assay
T1 sequence (whole entry): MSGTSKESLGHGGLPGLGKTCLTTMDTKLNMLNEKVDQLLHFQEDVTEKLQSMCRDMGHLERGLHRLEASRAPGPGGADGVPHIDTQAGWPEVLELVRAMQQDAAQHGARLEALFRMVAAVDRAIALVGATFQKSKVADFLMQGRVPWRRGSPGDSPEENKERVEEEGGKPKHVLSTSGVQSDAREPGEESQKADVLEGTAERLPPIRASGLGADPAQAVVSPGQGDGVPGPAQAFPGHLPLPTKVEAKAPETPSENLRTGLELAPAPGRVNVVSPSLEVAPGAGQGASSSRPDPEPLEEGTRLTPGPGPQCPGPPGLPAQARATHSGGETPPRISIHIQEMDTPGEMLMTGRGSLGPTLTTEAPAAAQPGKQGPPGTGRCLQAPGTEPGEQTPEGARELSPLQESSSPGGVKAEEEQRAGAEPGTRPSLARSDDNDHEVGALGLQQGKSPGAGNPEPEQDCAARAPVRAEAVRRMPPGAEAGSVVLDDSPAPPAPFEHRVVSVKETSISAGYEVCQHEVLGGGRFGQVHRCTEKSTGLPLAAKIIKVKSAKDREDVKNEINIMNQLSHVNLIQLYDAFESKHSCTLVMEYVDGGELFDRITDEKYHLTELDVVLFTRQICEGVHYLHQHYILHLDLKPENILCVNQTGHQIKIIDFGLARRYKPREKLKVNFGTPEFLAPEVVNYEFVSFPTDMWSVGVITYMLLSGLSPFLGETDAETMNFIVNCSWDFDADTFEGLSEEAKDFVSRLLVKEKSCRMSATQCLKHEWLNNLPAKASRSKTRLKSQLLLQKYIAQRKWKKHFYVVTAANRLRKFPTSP

[4] = molecular target: Glycogen synthase kinase-3 alpha (Homo sapiens) (UniProt P49840); assay: Inhibition of GSK3alpha (unknown origin) at 10 uM after 120 mins P33 radiolabeled kinase activity assay
[5] = molecular target: Serine/threonine-protein kinase PAK 3 (Homo sapiens) (UniProt O75914); assay: Inhibition of PAK3 (unknown origin) at 10 uM after 120 mins P33 radiolabeled kinase activity assay
[6] = molecular target: Mitogen-activated protein kinase kinase kinase kinase 5 (Homo sapiens) (UniProt Q9Y4K4); assay: Inhibition of KHS (unknown origin) at 10 uM after 120 mins P33 radiolabeled kinase activity assay
[7] = molecular target: T2, Phosphorylase b kinase gamma catalytic chain, liver/testis isoform (Homo sapiens) (UniProt P15735); assay: Inhibition of PHKg2 (unknown origin) at 10 uM after 120 mins P33 radiolabeled kinase activity assay
T2 sequence (whole entry): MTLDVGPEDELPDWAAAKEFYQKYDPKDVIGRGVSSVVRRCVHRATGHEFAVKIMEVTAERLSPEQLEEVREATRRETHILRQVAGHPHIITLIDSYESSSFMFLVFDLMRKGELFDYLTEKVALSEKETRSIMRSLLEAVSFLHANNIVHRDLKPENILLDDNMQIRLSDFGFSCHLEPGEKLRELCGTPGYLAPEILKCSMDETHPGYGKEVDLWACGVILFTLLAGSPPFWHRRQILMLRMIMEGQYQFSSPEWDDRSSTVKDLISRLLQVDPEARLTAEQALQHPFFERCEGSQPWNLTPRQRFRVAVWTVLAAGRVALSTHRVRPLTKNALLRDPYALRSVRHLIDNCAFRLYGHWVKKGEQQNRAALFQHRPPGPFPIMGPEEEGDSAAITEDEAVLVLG

[8] = molecular target: Vascular endothelial growth factor receptor 3 (Homo sapiens) (UniProt P35916); assay: Inhibition of FLT4 (unknown origin) at 10 uM after 120 mins P33 radiolabeled kinase activity assay
[9] = molecular target: Tyrosine-protein kinase receptor UFO (Homo sapiens) (UniProt P30530); assay: Inhibition of AXL (unknown origin) at 10 uM after 120 mins P33 radiolabeled kinase activity assay
[10] = molecular target: T3, Dual specificity tyrosine-phosphorylation-regulated kinase 2 (Homo sapiens) (UniProt Q92630); assay: Inhibition of DYRK2 (unknown origin) at 10 uM after 120 mins P33 radiolabeled kinase activity assay
T3 sequence (whole entry): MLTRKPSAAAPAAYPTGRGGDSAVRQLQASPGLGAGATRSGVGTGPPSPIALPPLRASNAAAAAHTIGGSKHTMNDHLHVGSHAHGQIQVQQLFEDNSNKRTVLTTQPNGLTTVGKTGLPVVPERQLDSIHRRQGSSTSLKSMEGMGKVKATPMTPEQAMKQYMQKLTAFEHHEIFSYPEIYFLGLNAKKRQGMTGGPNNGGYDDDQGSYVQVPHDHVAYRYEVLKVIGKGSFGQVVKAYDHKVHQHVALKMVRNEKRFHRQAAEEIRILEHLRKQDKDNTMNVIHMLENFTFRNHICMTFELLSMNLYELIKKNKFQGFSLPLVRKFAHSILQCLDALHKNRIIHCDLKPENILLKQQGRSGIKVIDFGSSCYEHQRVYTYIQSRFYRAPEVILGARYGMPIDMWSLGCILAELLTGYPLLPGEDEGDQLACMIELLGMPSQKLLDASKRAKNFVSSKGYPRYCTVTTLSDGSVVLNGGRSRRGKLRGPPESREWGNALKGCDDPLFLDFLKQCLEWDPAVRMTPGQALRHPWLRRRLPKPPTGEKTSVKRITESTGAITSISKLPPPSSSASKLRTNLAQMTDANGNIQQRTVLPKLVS

[11] = molecular target: Ribosomal protein S6 kinase alpha-6 (Homo sapiens) (UniProt Q9UK32); assay: Inhibition of RSK4 (unknown origin) at 10 uM after 120 mins P33 radiolabeled kinase activity assay
Chain of Ribosomal protein S6 kinase alpha-6 (Homo sapiens) (Q9UK32 whole entry): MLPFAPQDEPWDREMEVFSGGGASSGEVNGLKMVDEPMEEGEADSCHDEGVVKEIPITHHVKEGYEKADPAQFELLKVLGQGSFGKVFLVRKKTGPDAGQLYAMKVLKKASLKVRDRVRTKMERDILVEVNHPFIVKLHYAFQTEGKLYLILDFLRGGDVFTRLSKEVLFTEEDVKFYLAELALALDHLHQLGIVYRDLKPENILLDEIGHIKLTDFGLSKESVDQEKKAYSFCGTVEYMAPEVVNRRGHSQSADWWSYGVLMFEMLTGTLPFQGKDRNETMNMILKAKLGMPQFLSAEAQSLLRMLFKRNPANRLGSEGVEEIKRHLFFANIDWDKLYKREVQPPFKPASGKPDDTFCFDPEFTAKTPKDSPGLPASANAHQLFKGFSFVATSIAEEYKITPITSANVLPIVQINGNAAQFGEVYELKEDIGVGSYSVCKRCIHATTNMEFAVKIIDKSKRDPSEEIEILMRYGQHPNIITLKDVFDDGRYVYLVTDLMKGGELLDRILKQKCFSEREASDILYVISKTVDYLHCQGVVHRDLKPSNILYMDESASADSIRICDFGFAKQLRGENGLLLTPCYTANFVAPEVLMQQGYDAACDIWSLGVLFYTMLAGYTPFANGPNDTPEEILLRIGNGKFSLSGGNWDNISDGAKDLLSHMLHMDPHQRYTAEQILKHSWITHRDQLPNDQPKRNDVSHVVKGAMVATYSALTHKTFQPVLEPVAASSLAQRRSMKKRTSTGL

Chain of Cyclin-dependent kinase 1/cyclin B1 (Homo sapiens) (P06493 whole entry, looked up): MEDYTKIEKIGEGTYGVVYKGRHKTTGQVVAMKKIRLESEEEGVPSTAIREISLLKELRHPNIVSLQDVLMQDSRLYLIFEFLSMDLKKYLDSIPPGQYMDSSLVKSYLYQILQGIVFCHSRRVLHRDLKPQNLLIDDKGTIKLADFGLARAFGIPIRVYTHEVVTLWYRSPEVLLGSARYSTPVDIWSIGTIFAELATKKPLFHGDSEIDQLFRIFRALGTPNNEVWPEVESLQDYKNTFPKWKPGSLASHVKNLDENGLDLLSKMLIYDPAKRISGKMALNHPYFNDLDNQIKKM
Chain of Cyclin-dependent kinase 1/cyclin B1 (Homo sapiens) (P14635 whole entry, looked up): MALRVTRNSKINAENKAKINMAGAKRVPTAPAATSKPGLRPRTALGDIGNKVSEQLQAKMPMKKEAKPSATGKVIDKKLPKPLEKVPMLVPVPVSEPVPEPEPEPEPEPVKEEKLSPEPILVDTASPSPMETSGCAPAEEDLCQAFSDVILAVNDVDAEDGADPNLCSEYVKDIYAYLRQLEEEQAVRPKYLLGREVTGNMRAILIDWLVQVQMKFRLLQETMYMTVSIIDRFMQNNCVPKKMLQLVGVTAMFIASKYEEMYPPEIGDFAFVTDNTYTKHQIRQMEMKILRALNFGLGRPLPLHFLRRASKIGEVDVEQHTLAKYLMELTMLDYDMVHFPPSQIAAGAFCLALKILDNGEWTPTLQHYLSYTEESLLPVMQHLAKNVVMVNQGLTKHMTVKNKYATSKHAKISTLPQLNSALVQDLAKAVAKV
Chain of Tyrosine-protein kinase receptor UFO (Homo sapiens) (P30530 whole entry): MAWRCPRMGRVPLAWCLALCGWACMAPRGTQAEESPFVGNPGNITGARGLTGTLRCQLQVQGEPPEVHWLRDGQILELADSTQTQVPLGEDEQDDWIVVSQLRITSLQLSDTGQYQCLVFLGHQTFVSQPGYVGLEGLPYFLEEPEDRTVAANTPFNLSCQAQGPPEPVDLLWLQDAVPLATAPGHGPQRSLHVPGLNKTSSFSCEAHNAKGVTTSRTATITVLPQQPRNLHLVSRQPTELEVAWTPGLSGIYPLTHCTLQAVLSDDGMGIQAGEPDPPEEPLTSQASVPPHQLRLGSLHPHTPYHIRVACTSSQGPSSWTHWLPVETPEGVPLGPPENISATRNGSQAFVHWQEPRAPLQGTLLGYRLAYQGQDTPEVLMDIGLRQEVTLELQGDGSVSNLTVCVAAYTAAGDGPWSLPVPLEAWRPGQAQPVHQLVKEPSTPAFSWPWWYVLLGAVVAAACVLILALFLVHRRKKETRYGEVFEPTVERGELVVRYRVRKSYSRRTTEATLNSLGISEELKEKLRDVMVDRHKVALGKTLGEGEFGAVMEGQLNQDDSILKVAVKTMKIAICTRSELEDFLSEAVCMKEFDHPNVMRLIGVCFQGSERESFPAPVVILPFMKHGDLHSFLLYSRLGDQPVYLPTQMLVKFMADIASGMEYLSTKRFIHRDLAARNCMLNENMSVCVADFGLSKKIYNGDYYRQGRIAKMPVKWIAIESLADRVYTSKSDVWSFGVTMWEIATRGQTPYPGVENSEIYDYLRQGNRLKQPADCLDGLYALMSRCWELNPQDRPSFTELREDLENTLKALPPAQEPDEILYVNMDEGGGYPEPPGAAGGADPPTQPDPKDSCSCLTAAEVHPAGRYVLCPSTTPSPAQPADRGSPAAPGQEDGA
Chain of Vascular endothelial growth factor receptor 3 (Homo sapiens) (P35916 whole entry): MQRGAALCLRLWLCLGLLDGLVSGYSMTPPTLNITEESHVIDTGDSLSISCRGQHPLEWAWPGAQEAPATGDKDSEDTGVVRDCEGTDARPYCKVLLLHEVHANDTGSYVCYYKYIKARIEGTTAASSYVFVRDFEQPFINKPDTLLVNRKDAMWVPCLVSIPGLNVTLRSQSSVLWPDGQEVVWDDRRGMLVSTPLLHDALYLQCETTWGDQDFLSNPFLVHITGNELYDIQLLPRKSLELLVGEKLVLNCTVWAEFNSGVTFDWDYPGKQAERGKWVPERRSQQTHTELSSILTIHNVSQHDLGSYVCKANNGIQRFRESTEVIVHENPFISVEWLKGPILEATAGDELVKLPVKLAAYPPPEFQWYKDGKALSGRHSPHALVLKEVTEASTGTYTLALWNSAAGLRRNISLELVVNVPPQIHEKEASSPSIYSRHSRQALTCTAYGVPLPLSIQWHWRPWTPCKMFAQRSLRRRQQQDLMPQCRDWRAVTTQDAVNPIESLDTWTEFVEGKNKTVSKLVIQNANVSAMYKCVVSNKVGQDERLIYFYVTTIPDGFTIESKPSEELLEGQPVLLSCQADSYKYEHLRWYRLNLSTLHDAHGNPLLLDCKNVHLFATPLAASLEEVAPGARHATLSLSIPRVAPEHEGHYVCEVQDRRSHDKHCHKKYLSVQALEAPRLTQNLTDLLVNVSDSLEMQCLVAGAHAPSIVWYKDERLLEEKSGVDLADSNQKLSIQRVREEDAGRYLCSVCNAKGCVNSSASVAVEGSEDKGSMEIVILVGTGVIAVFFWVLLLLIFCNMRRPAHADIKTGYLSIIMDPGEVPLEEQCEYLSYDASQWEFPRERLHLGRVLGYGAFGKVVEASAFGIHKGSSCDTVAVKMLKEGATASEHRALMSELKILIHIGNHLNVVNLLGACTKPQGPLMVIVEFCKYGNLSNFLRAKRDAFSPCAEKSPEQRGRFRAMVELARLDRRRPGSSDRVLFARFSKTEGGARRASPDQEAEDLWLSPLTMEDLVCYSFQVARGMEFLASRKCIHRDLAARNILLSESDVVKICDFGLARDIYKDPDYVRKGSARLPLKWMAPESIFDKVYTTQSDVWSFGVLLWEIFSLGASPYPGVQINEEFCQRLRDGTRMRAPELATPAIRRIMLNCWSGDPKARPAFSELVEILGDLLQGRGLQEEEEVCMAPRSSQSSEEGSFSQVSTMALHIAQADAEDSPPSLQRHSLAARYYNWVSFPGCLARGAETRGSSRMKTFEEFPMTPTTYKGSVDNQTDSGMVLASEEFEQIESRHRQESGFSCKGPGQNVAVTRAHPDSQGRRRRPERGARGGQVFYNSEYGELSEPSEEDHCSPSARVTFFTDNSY
Chain of Mitogen-activated protein kinase kinase kinase kinase 5 (Homo sapiens) (Q9Y4K4 whole entry, looked up, canonical isoform): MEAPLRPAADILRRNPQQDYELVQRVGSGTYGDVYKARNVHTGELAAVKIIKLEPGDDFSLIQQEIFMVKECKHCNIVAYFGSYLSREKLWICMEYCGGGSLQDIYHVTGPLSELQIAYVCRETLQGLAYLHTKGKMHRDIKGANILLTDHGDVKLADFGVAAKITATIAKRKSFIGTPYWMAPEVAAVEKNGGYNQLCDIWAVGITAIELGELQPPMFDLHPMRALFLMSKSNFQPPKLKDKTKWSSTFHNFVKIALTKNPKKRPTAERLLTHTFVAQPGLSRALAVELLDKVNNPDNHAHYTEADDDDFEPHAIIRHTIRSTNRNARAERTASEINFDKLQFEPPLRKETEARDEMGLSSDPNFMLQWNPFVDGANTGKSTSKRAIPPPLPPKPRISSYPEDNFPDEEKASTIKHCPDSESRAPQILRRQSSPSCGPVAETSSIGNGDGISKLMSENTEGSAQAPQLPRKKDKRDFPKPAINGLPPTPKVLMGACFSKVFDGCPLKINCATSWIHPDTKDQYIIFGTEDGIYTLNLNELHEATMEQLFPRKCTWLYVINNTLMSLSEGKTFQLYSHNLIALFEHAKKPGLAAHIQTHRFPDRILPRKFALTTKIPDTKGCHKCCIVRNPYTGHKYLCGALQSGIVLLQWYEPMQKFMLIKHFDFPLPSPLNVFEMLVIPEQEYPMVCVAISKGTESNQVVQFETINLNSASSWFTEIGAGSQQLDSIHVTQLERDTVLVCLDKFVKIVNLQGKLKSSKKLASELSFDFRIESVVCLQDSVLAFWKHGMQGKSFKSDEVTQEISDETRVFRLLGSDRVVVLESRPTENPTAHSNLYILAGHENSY
Chain of Glycogen synthase kinase-3 alpha (Homo sapiens) (P49840 2-483 limits assumed): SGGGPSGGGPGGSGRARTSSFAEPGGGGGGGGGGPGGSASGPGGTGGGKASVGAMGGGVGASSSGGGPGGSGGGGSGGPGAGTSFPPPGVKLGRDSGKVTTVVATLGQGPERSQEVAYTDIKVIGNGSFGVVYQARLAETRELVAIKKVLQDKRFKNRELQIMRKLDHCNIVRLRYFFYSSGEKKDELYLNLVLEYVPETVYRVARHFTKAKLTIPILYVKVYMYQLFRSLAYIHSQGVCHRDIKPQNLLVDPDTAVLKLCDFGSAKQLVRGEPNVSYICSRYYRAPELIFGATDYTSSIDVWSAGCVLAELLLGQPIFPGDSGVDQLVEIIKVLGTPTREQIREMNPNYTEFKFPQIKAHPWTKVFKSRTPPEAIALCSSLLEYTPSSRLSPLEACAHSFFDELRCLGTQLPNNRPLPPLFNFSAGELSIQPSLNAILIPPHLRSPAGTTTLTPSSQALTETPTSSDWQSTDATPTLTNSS

SMILES | inhibition [1] [%] | inhibition [2] [%] | inhibition [3] [%] | inhibition [4] [%] | inhibition [5] [%] | inhibition [6] [%] | inhibition [7] [%] | inhibition [8] [%] | inhibition [9] [%] | inhibition [10] [%] | inhibition [11] [%]
COCCNC(=O)c1ccc2c(c1)nc(-c1cnc(-c3ccc(Cl)cc3)[nH]1)n2CCOC | 7.06 | -3.76 | -0.74 | 5.43 | 18.5 | 33.6 | 3.38 | 13.7 | 7.68 | 11.5 | 1.08
CS(=O)(=O)c1cccc(Nc2nccc(-c3sc(N4CCOCC4)nc3-c3cccc(NS(=O)(=O)c4c(F)cccc4F)c3)n2)c1 | 75.7 | 70.8 | -2.12 | 98.9 | 53.5 | 93.5 | 5.98 | 99.5 | 82.1 | 37.4 | 66.9
CC(C)(C)c1cc(NC(=O)Nc2ccc(Oc3ccncc3)cc2)no1 | 67.3 | 35.1 | -2.01 | 37.8 | 20.6 | 90 | -3.81 | 98.9 | 86.6 | 77.8 | 4.26
